Experimental data reported in ChEMBL document CHEMBL4422673, “Discovery, synthesis and characterization of a series of (1-alkyl-3-methyl-1H-pyrazol-5-yl)-2-(5-aryl-2H-tetrazol-2-yl)acetamides as novel GIRK1/2 potassium channel activators” (Bioorg Med Chem Lett, 2019).
The source made the active and inactive calls. The rule behind the calls is not given here.

What was measured:
[1] = target: T1, Kir3.1/Kir3.2 (Homo sapiens) (UniProt P48549+P48051); assay: Activation of human GIRK1/2 expressed in HEK293 cells co-expressing rat mGlu8 by thallium flux assay relative to control; format: cell-based
Kir3.1/Kir3.4 [2] = target: T2, Kir3.1/Kir3.4 (Homo sapiens, UniProt P48549+P48544); assay: (§1) Activation of human GIRK1/4 expressed in HEK293 cells co-expressing rat mGlu8 by thallium flux assay; format: cell-based; conditions: hek293
T2 sequence (P48549 whole entry): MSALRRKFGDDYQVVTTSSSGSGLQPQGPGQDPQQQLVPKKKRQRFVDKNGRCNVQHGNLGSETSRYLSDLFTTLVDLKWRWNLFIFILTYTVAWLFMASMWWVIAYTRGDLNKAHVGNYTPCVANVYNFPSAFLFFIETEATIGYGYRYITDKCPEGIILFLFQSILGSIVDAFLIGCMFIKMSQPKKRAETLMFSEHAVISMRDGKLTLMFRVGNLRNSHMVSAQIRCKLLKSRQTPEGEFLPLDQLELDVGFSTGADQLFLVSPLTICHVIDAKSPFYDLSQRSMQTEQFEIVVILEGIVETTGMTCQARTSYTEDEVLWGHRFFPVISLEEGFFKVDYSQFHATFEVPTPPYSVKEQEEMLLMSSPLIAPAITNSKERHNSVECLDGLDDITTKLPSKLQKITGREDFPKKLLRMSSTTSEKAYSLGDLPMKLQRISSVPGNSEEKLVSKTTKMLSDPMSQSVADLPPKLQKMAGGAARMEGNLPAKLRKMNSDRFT
T2 sequence (P48544 whole entry): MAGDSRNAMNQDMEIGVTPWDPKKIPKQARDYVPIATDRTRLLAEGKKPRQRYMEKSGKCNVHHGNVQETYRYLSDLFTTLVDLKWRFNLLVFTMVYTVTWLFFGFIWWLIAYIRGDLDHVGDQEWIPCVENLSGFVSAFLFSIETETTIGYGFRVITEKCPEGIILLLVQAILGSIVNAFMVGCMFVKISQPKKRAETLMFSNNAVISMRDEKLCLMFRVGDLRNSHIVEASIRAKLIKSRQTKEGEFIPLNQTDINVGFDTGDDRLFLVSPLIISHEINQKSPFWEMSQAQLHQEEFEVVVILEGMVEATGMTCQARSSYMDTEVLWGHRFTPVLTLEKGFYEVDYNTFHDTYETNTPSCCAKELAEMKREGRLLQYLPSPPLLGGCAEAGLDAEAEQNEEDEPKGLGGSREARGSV

Kir3.1/Kir3.2 [3] = target: T3, Kir3.1/Kir3.2 (Homo sapiens, UniProt P48549+P48051); assay: (§2) Activation of human GIRK1/2 expressed in HEK293 cells co-expressing rat mGlu8 by thallium flux assay; format: cell-based; conditions: hek293
T3 sequence (P48549 whole entry): T2 sequence (P48549 whole entry)
T3 sequence (P48051 whole entry): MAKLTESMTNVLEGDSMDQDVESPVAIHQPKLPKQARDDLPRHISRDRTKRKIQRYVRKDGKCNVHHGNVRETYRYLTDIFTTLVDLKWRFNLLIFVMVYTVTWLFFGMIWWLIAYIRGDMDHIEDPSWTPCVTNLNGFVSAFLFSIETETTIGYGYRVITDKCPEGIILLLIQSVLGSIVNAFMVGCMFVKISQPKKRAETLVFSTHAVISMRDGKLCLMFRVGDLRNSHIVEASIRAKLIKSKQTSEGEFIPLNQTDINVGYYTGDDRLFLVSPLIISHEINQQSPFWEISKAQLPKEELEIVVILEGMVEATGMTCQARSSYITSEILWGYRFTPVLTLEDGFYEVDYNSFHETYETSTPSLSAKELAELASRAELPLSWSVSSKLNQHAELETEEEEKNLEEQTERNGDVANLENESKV

[4] = target: Kir3.1/Kir3.4 (Homo sapiens) (UniProt P48549+P48544); assay: Activation of human GIRK1/4 expressed in HEK293 cells co-expressing rat mGlu8 by thallium flux assay relative to control; format: cell-based
[5] = Clearance in mouse liver microsomes
[6] = Stability in mouse plasma; format: ADME, cell-free
Homo sapiens = species on record: Homo sapiens; assay: Ratio of EC50 for activation of human GIRK1/4 expressed in HEK293 cells co-expressing rat mGlu8 by thallium flux assay to EC50 for Activation of human GIRK1/2 expressed in HEK293 cells co-expressing rat mGlu8 by thallium flux assay; format: cell-based
[7] = Fraction unbound in human plasma; format: ADME, cell-free
[8] = Clearance in human liver microsomes
Kir3.1/Kir3.4 [9] = target: T4, Kir3.1/Kir3.4 (Homo sapiens, UniProt P48544+P48549); assay: as §1; format: cell-based
T4 sequence (P48549 whole entry): T2 sequence (P48549 whole entry)
T4 sequence (P48544 whole entry): T2 sequence (P48544 whole entry)

Kir3.1/Kir3.2 [10] = target: T5, Kir3.1/Kir3.2 (Homo sapiens, UniProt P48051+P48549); assay: as §2; format: cell-based
T5 sequence (P48549 whole entry): T2 sequence (P48549 whole entry)
T5 sequence (P48051 whole entry): T3 sequence (P48051 whole entry)

[11] = target: T1, Kir3.1/Kir3.2 (Homo sapiens); assay: as §2; format: cell-based
[12] = Half life in human liver S9 fraction; format: ADME, subcellular
[13] = Extraction ratio in human liver S9 fraction; format: ADME, subcellular; conditions: read-out: ERH

Row | SMILES | Emax [1] | EC50 (Kir3.1/Kir3.4 [2]) | EC50 (Kir3.1/Kir3.2 [3]) | Emax [4] | CLhep predicted [5] [mL/min/kg] | Stability [6] | Fu [7] [%] | CLhep predicted [8] [mL/min/kg] | EC50 (Kir3.1/Kir3.4 [9]) [µM] | EC50 (Kir3.1/Kir3.2 [10]) [µM] | Activity [11] | t1/2 [12] [h] | hepatic extraction ratio [13] | Ratio EC50 (Homo sapiens)
1 | O=C(Cn1nnc(-c2ccccc2)n1)Nc1cc(C2(C(F)(F)F)CC2)nn1C1CCCCC1 | inactive | Not Active | Not Active | inactive | – | – | – | – | – | – | – | – | – | –
2 | Cc1cc(N(C)C(=O)Cn2nnc(-c3ccccc3)n2)n(C2CCCCC2)n1 | – | – | – | – | – | – | – | – | – | – | inactive | – | – | –
3 | Cc1cc(NC(=O)Cn2cc(-c3ccccc3)nn2)n(C2CCCCC2)n1 | 87% | – | – | 76% | 78.2 | Unstable | 3 | 14.6 | 0.412 | 0.116 | – | – | – | –
4 | O=C(Cn1nnc(-c2ccccc2)n1)Nc1ccccn1 | inactive | Not Active | Not Active | inactive | – | – | – | – | – | – | – | – | – | –
5 | Cc1cc(NC(=O)Cn2nnc(-c3ccccc3)n2)n(C2CCS(=O)(=O)C2)n1 (centres undefined) | 93% | – | – | 75% | – | Unstable | 3.7 | – | 2.17 | 1.03 | – | 10.79 | < 0.05 | –
6 | Cc1nc(-c2ccccc2)c(NC(=O)Cn2nnc(-c3ccccc3)n2)s1 | inactive | Not Active | Not Active | inactive | – | – | – | – | – | – | – | – | – | –
7 | Cc1nc(NC(=O)Cn2nnc(-c3ccccc3)n2)n(-c2ccccc2)n1 | inactive | Not Active | Not Active | inactive | – | – | – | – | – | – | – | – | – | –
8 | Cc1cc(NC(=O)Cn2nnc(-c3ccccc3)n2)n(C2CCC(F)(F)CC2)n1 | 68% | – | – | 52% | 80 | Unstable | 1.5 | 15.9 | 0.383 | 0.084 | – | – | – | –

More lines, main results first:

Row | Emax [1] | EC50 (Kir3.1/Kir3.4 [2]) | EC50 (Kir3.1/Kir3.2 [3]) | Emax [4] | CLhep predicted [5] [mL/min/kg] | Stability [6] | Fu [7] [%] | CLhep predicted [8] [mL/min/kg] | EC50 (Kir3.1/Kir3.4 [9]) [µM] | EC50 (Kir3.1/Kir3.2 [10]) [µM] | Activity [11] | t1/2 [12] [h] | hepatic extraction ratio [13] | SMILES | Ratio EC50 (Homo sapiens)
9 | 96% | – | – | 80% | 87.1 | Unstable | 1 | 17.8 | – | – | – | – | – | Cc1cc(NC(=O)Cn2nnc(-c3cccc(F)c3)n2)n(C2CCCCC2)n1 | 3 to 5
10 | 92% | – | – | 63% | 87 | Unstable | 1.1 | 18.9 | 0.259 | 0.096 | – | – | – | Cc1cc(NC(=O)Cn2nnc(-c3ccccc3)n2)n(C2CCCCC2)n1 | 3
11 | 84% | – | – | 70% | 76 | Unstable | < 0.3 | 17.4 | 2.2 | 1.22 | – | – | – | Cc1cc(NC(=O)Cn2nnc(-c3ccc(Cl)c(Cl)c3)n2)n(C2CCCCC2)n1 | 3 to 5
12 | 89% | – | – | 66% | – | – | – | – | 0.662 | 0.3 | – | – | – | Cc1cc(NC(=O)Cn2nnc(-c3cccc(Cl)c3)n2)n(C2CCCCC2)n1 | 3 to 5
13 | 93% | – | – | 79% | – | – | – | – | 0.392 | 0.116 | – | – | – | Cc1cc(NC(=O)Cn2nnc(-c3ccc(F)c(F)c3)n2)n(C2CCCCC2)n1 | 3 to 5
14 | 77% | – | – | 58% | 88.7 | Unstable | 0.3 | 20.4 | 0.283 | 0.176 | – | – | – | Cc1cc(NC(=O)Cn2nnc(-c3ccccc3)n2)n(CC2CCCCC2)n1 | –
